Assay results taken from patent US9732097B2, “Process for the synthesis of a phosphoinositide 3-kinase inhibitor” (Incyte Corporation, priority 2015, dated 2017).

Columns and labels:
human JAK2 = human JAK2 (Homo sapiens (Human), UniProt O60674); assay: In vitro JAK kinase assay (Example D, HTRF), JAK2; format: biochemical; conditions: ratio of JAK2 to JAK1 IC50, 1 mM ATP
human JAK1 = human JAK1 (Homo sapiens, UniProt P23458); assay: In vitro JAK kinase assay (Example D, HTRF), JAK1; format: biochemical; conditions: 1 mM ATP

Chain of human JAK2 (O60674 828-1132): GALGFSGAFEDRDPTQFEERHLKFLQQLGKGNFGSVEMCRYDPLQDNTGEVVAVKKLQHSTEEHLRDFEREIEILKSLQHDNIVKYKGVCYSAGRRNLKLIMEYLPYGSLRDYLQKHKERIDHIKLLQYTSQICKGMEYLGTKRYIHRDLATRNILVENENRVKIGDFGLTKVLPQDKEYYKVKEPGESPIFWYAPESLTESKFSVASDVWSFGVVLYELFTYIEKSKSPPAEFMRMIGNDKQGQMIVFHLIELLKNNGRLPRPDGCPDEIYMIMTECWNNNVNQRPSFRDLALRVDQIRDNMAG

Compound | JAK2/JAK1 (human JAK2) | IC50 (human JAK1) [nM]
N#CCC(C1CCN(c2cccc(Cl)n2)C1)n1cc(-c2ncnc3[nH]ccc23)cn1 (single isomer, unassigned) [compound 3, 3-[1-(6-chloropyridin-2-yl)pyrrolidin-3-yl]-3-[4-(7H-pyrrolo[2,3-d]pyrimidin-4-yl)-1H-pyrazol-1-yl]propanenitrile] | >10 | < 10
C[C@@H](O)c1nc2cnc3ccsc3c2n1[C@H]1CC[C@H](CC#N)OC1 [compound 1, ((2R,5S)-5-{2-[(1R)-1-hydroxyethyl]-1H-imidazo[4,5-d]thieno[3,2-b]pyridin-1-yl}tetrahydro-2H-pyran-2-yl)acetonitrile] | >10 | < 100
N#CCC(C1CCN(c2nc3cccnc3o2)C1)n1cc(-c2ncnc3[nH]ccc23)cn1 (stereo not drawn) [compound 4, 3-(1-[1,3]oxazolo[5,4-b]pyridin-2-ylpyrrolidin-3-yl)-3-[4-(7H-pyrrolo[2,3-d]pyrimidin-4-yl)-1H-pyrazol-1-yl]propanenitrile] | >10 | < 10
N#CCC(CN1CCN(C(=O)c2ccc(C#N)cc2F)CC1)n1cc(-c2ncnc3[nH]ccc23)cn1 (stereo not drawn) [compound 5, 4-[(4-{3-cyano-2-[4-(7H-pyrrolo[2,3-d]pyrimidin-4-yl)-1H-pyrazol-1-yl]propyl}piperazin-1-yl)carbonyl]-3-fluorobenzonitrile] | >10 | < 10
N#CCC(CN1CCN(C(=O)c2ccc(C#N)cc2F)CC1)n1ccc(-c2ncnc3[nH]ccc23)c1 (stereo not drawn) [compound 6, 4-[(4-{3-cyano-2-[3-(7H-pyrrolo[2,3-d]pyrimidin-4-yl)-1H-pyrrol-1-yl]propyl}piperazin-1-yl)carbonyl]-3-fluorobenzonitrile] | >10 | < 10
N#CCC1(n2cc(-c3ncnc4[nH]ccc34)cn2)CN(C2CCN(C(=O)c3ccnc(C(F)(F)F)c3F)CC2)C1 [compound 7, {1-{1-[3-Fluoro-2-(trifluoromethyl)isonico-tinoyl]piperidin-4-yl}-3-[4-(7H-pyrrolo[2,3-d]pyrimidin-4-yl)-1H-pyrazol-1-yl]azetidin-3-yl}acetonitrile] | >10 | < 10
N#CCC1(n2cc(-c3ncnc4[nH]ccc34)cn2)CN(C2CCN(C(=O)Nc3ccc(F)cc3C(F)(F)F)CC2)C1 [compound 8, 4-{3-(Cyanomethyl)-3-[4-(7H-pyrrolo[2,3-d]pyrimidin-4-yl)-1H-pyrazol-1-yl]azetidin-1-yl}-N-[4-fluoro-2-(trifluoromethyl)phenyl] piperidine-1-carboxamide] | >10 | < 10
N#CCC1(n2cc(-c3ncnc4[nH]ccc34)cn2)CN(C2CCN(C(=O)c3ccnc(C(F)(F)F)n3)CC2)C1 [compound 9, [3-[4-(7H-pyrrolo[2,3-d]pyrimidin-4-yl)-1H-pyrazol-1-yl]-1-(1-{[2-(trifluoromethyl)pyrim-idin-4-yl]carbonyl}piperidin-4-yl)azetidin-3-yl]acetonitrile] | >10 | < 10
N#CC[C@]1(n2cc(-c3ncnc4[nH]ccc34)cn2)C[C@H](N2CCN(C(=O)c3ccnc(C(F)(F)F)n3)CC2)C1 [compound 10, [trans-1-[4-(7H-pyrrolo[2,3-d]pyrimidin-4-yl)-1H-pyrazol-1-yl]-3-(4-{[2-(trifluoromethyl)pyrim-idin-4-yl]carbonyl}piperazin-1-yl)cyclobutyl]acetonitrile] | >10 | < 10
N#CC[C@]1(n2cc(-c3ncnc4[nH]ccc34)cn2)C[C@H](N2CCC(Oc3cc(CN4CC(O)C4)cc(C(F)(F)F)n3)CC2)C1 [compound 11, {trans-3-(4-{[4-[(3-hydroxyazetidin-1-yl)methyl]-6-(trifluoromethyl)pyridin-2-yl]oxy}piperidin-1-yl)-1-[4-(7H-pyrrolo[2,3-d]pyrimidin-4-yl)-1H-pyrazol-1-yl]cyclobutyl}acetonitrile] | >10 | < 10
N#CC[C@]1(n2cc(-c3ncnc4[nH]ccc34)cn2)C[C@H](N2CCC(Oc3cc(CN4CCC[C@H]4CO)cc(C(F)(F)F)n3)CC2)C1 [compound 12, {trans-3-(4-{[4-{[(2S)-2-(hydroxymethyl)pyrrolidin-1-yl]methyl}-6-(trifluoromethyl)pyridin-2-yl]oxy}piperidin-1-yl)-1-[4-(7H-pyrrolo[2,3-d]pyrimidin-4-yl)-1H-pyrazol-1-yl]cyclobutyl}acetonitrile] | >10 | < 10
N#CC[C@]1(n2cc(-c3ncnc4[nH]ccc34)cn2)C[C@H](N2CCC(Oc3cc(CN4CCC[C@@H]4CO)cc(C(F)(F)F)n3)CC2)C1 [compound 13, {trans-3-(4-{[4-{[(2R)-2-(hydroxymethyl)pyrrolidin-1-yl]methyl}-6-(trifluoromethyl)pyridin-2-yl]oxy}piperidin-1-yl)-1-[4-(7H-pyrrolo[2,3-d]pyrimidin-4-yl)-1H-pyrazol-1-yl]cyclobutyl}acetonitrile] | >10 | < 10
C[C@H](NC(=O)c1cc(F)c(N2CC(CC#N)(n3cc(-c4ncnc5[nH]ccc45)cn3)C2)cc1F)C(F)(F)F [compound 16, 4-{3-(cyanomethyl)-3-[4-(7H-pyrrolo[2,3-d]pyrimidin-4-yl)-1H-pyrazol-1-yl]azetidin-1-yl}-2,5-difluoro-N-[(1S)-2,2,2-trifluoro-1-methylethyl]benzamide] | >10 | < 10
N#CCC1(n2cc(-c3ncnc4[nH]ccc34)cn2)CN([C@H]2CC[C@@H](Oc3cc(CCO)nc(C(F)(F)F)n3)CC2)C1 [compound 18, {1-(cis-4-{[6-(2-hydroxyethyl)-2-(trifluoromethyl)pyrimidin-4-yl]oxy}cyclohexyl)-3-[4-(7H-pyrrolo[2,3-d]pyrimidin-4-yl)-1H-pyrazol-1-yl]azetidin-3-yl}acetonitrile] | >10 | < 10
CCNCc1cc(O[C@H]2CC[C@@H](N3CC(CC#N)(n4cc(-c5ncnc6[nH]ccc56)cn4)C3)CC2)nc(C(F)(F)F)c1 [compound 19, {1-(cis-4-{[4-[(ethylamino)methyl]-6-(trifluoromethyl)pyridin-2-yl]oxy}cyclohexyl)-3-[4-(7H-pyrrolo[2,3-d]pyrimidin-4-yl)-1H-pyrazol-1-yl]azetidin-3-yl]acetonitrile] | >10 | < 10
N#CCC1(n2cc(-c3ncnc4[nH]ccc34)cn2)CN([C@H]2CC[C@@H](Oc3cc(CN4CC[C@@H](O)C4)cc(C(F)(F)F)n3)CC2)C1 [compound 21, {1-(cis-4-{[4-{[(3R)-3-hydroxypyrrolidin-1-yl]methyl}-6-(trifluoromethyl)pyridin-2-yl]oxy}cyclohexyl)-3-[4-(7H-pyrrolo[2,3-d]pyrimidin-4-yl)-1H-pyrazol-1-yl]azetidin-3-yl}acetonitrile] | >10 | < 10
N#CCC1(n2cc(-c3ncnc4[nH]ccc34)cn2)CN([C@H]2CC[C@@H](Oc3cc(CN4CC[C@H](O)C4)cc(C(F)(F)F)n3)CC2)C1 [compound 22, {1-(cis-4-{[4-{[(3S)-3-hydroxypyrrolidin-1-yl]methyl}-6-(trifluoromethyl)pyridin-2-yl]oxy}cyclohexyl)-3-[4-(7H-pyrrolo[2,3-d]pyrimidin-4-yl)-1H-pyrazol-1-yl]azetidin-3-yl}acetonitrile] | >10 | < 10
C[C@@H](CO)NCc1cc(OC2CCN([C@H]3C[C@](CC#N)(n4cc(-c5ncnc6[nH]ccc56)cn4)C3)CC2)nc(C(F)(F)F)c1 [compound 23, {trans-3-(4-{[4-({[(1S)-2-hydroxy-1-methylethyl]amino}methyl)-6-(trifluoromethyl)pyridin-2-yl]oxy}piperidin-1-yl)-1-[4-(7H-pyrrolo[2,3-d]pyrimidin-4-yl)-1H-pyrazol-1-yl]cyclobutyl}acetonitrile] | >10 | < 10
C[C@@H](O)CNCc1cc(OC2CCN([C@H]3C[C@](CC#N)(n4cc(-c5ncnc6[nH]ccc56)cn4)C3)CC2)nc(C(F)(F)F)c1 [compound 24, {trans-3-(4-{[4-({[(2R)-2-hydroxypropyl]amino}methyl)-6-(trifluoromethyl)pyridin-2-yl]oxy}piperidin-1-yl)-1-[4-(7H-pyrrolo[2,3-d]pyrimidin-4-yl)-1H-pyrazol-1-yl]cyclobutyl}acetonitrile] | >10 | < 10
C[C@H](O)CNCc1cc(OC2CCN([C@H]3C[C@](CC#N)(n4cc(-c5ncnc6[nH]ccc56)cn4)C3)CC2)nc(C(F)(F)F)c1 [compound 25, {trans-3-(4-{[4-({[(2S)-2-hydroxypropyl]amino}methyl)-6-(trifluoromethyl)pyridin-2-yl]oxy}piperidin-1-yl)-1-[4-(7H-pyrrolo[2,3-d]pyrimidin-4-yl)-1H-pyrazol-1-yl]cyclobutyl}acetonitrile] | >10 | < 10
N#CC[C@]1(n2cc(-c3ncnc4[nH]ccc34)cn2)C[C@H](N2CCC(Oc3cc(CCO)cc(C(F)(F)F)n3)CC2)C1 [compound 26, {trans-3-(4-{[4-(2-hydroxyethyl)-6-(trifluoromethyl)pyridin-2-yl]oxy}piperidin-1-yl)-1-[4-(7H-pyrrolo[2,3-d]pyrimidin-4-yl)-1H-pyrazol-1-yl]cyclobutyl}acetonitrile] | >10 | < 10
